{"source": "patent US10613180B2", "about": "“Methods and systems of assessing tissue vascular permeability using non-labeled dextran” (priority 2014, dated 2020)", "key": {"CT26 colon tumors": {"test_system": "CT26 colon tumors", "experiment": "In vivo CEST MRI of 150 kD dextran uptake before and after TNF-α", "design": "species or system mice", "conditions": "TNF-α 1 μg per mouse, one hour after 150 kD dextran", "protocol": "For dextran of 150 kD, a slightly different protocol was used (FIG. 3a). […] One hour later, TNF-α (1 μg per mouse) was injected. The CEST MRI was acquired using a series of z spectral imaging acquisition (from −3 ppm to +3 ppm, step=0.2 ppm). Each acquisition took ˜16 minutes. For all the studies, a fat-suppressed RARE sequence with a continuous wave pre-saturation pulse B1=1.8 μT and 3 seconds (TR/TE=5000/5 ms, RARE factor=10)^2 was used. Data were processed using custom-written MATLAB scripts. After correcting for B0 inhomogeneity using the WASSR method, the in vivo CEST contrast was quantified by averaging the MTRasym=(S^−Δω−S^+Δω)/S0 from 0.8 to 1.2 ppm.^2"}, "tumor": {"test_system": "tumor", "experiment": "In vivo and ex vivo fluorescence imaging and immunohistochemistry with dextran-FITC", "design": "species or system mice", "conditions": "after TNF-α", "from_the_text": "The changes of mean ROI CEST contrast of tumor and kidney are plotted on the right. […] The dextran can be also imaged by its conjugated fluorescein (FITC)."}}, "data": [{"substance": "TNF-α", "values": [{"measurement": "effect of TNF-α on dextran accumulation in tumor and kidney", "setting": "CT26 colon tumors", "result": "increased vascular permeability"}, {"measurement": "dextran uptake in tumors by fluorescence imaging and immunohistochemistry", "setting": "tumor", "result": "marked increased dextran uptake in tumors"}]}]}
